According to paper PMC7468908 (Nutrients, 2020):
Where “and” joins values, the source holds several entries; their conditions need not be identical. Equal entries are not always repeated. Where two headings read alike, the source gives them in different places.

Experiments:
[1] = target: T1, OATP1B1 (Homo sapiens, UniProt Q9Y6L6); assay: OATP1B1-mediated pyranine uptake in A431 cells overexpressing OATP1B1; type: cell-based
T1 construct: expressed in transfected cells; host or cells: A431
T1 sequence (Q9Y6L6 1-691): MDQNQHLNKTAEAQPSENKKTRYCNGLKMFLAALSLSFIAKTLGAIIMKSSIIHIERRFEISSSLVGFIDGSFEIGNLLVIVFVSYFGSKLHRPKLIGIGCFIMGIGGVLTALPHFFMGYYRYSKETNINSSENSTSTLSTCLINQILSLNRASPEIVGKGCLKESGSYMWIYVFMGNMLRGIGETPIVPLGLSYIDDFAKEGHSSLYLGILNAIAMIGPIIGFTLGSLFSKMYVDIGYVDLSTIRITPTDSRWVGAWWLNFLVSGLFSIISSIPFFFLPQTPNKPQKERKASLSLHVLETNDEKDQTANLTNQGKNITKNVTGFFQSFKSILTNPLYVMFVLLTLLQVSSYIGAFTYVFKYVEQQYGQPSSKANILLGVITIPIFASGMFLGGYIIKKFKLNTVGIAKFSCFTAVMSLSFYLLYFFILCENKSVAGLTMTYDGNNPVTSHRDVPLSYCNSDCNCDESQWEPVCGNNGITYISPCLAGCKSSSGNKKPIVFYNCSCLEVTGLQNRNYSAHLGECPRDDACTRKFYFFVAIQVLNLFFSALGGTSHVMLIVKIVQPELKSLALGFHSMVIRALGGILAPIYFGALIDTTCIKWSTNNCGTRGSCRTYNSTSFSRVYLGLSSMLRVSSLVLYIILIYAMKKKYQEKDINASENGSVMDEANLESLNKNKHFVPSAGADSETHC
Procedure: (§1) A431 cells overexpressing human OATPs, 1A2 (BC042452, HsCD00333163), 1B1 (Gene ID: AB026257), 1B3 (BC141525, HsCD00348132) or 2B1 (BC041095.1, HsCD00378878), or their mock transfected controls, were generated as previously described. Cells were cultured in Dulbecco’s Modified Eagle Medium (DMEM; Thermo Fischer Scientific, Waltham, MA, USA) supplemented with 10% fetal bovine serum, 2 mM L-glutamine, 100 units/mL penicillin and 100 µg/mL streptomycin, at 37 °C with 5% CO2.
(§2) The interaction between flavonoids and OATPs was investigated in an indirect assay employing the fluorescent dye substrates, pyranine and sulforhodamine 101 [51, 52]. Briefly, A431 cell overexpressing OATPs, 1A2, 1B1, 1B3 or 2B1, or their mock transfected controls, were seeded on 96-well plates in a density of 8x10^4 cells/well in 200 μL DMEM one day prior to the transport measurements. […] The reaction was started by the addition of 50 μL uptake buffer containing pyranine in a final concentration of 10 μM (OATP1B1) or 20 μM (OATP1B3 and OATP2B1), or 0.5 μM sulforhodamine 101 (OATP1A2). Thereafter, cells were incubated at 37°C for 15 min (OATP1B1 and OATP2B1), 10 min (OATP1A2), or 30 min (OATP1B3). The reactions were stopped by removing the supernatants, then the cells were washed three times with ice-cold PBS. Fluorescence (in 200 μL PBS/well) was determined employing an Enspire plate reader (Perkin Elmer, Waltham, MA) ex/em: 403/517 nm (pyranine) or 586/605 nm (sulforhodamine 101). OATP-dependent transport was calculated by extracting fluorescence measured in mock transfected cells. Transport activity was calculated based on the fluorescence signal in the absence (100%) of flavonoids. Experiments were repeated at least in three biological replicates. IC50 values were calculated by Hill1 fit, using the Origin Pro8.6 software ([…]).

[2] = target: T2, OATP1A2 (Homo sapiens, UniProt P46721); assay: OATP1A2-mediated sulforhodamine 101 uptake in A431 cells overexpressing OATP1A2; type: cell-based; conditions: for IC50: A431-OATP1A2 cells
T2 construct: host or cells: A431
T2 sequence (P46721 1-670): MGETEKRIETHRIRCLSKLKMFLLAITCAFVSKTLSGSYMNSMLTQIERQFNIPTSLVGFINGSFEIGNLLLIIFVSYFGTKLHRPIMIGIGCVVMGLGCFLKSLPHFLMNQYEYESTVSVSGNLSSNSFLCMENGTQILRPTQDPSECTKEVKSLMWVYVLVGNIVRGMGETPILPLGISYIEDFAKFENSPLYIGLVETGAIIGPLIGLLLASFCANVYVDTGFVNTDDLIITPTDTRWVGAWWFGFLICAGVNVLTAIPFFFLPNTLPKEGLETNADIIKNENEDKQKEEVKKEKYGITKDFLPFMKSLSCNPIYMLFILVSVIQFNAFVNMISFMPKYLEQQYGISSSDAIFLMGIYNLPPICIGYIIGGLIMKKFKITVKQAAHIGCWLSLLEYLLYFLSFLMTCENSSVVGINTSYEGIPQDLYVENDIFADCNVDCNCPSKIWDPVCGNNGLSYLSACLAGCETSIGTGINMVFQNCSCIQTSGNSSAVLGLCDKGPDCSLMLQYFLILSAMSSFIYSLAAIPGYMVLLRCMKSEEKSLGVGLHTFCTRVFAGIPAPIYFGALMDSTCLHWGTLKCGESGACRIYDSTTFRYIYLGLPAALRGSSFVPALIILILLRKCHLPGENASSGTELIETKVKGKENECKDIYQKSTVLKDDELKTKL
Procedure: as §1, §2

[3] = 10 μM pyranine, 15 min, A431-OATP1B1 cells, read-out: IC50 for OATP1B1
[4] = 0.5 μM sulforhodamine 101, 10 min
[5] = 0.5 μM sulforhodamine 101, 10 min, read-out: IC50 for OATP1A2

Row | Compound | concentration causing statistically significant (p < 0.01) inhibition, OATP1B1 ([1]; 10 μM pyranine, 15 min) [nM] | IC50 [1, 3] [µM] | concentration causing statistically significant (p < 0.01) inhibition, OATP1A2 [2, 4] [µM] | IC50 [2, 5] | IC50 [1] [µM] | IC50 ([2]; IC50 for OATP1A2, 0.5 μM sulforhodamine 101, 10 min) [µM]
1 | COc1cc(-c2oc3cc(O)cc(O)c3c(=O)c2O)ccc1O [IR, isorhamnetin] | 3100 |  | 3.1 |  | 3.12 | > 30
2 | O=c1c(O)c(-c2ccc(O)c(O)c2)oc2cc(O)cc(O)c12 [Q, quercetin] | 1300 | 1.55 | 3.1 | 10.1 µM |  | 
3 | COc1cc(-c2oc3cc(O)cc(O)c3c(=O)c2OC2OC(C(=O)O)C(O)C(O)C2O)ccc1O (centres unmarked) [I3G, isorhamnetin-3-glucuronide] | 1600 | 5.63 | 12.5 | > 30 µM |  | 

Continued, in another order:

Row | concentration causing statistically significant (p < 0.01) inhibition, OATP1B1 ([1]; 10 μM pyranine, 15 min) [nM] | IC50 [1, 3] [µM] | concentration causing statistically significant (p < 0.01) inhibition, OATP1A2 [2, 4] [µM] | IC50 [2, 5] | Compound | IC50 [1] [µM] | IC50 ([2]; IC50 for OATP1A2, 0.5 μM sulforhodamine 101, 10 min) [µM]
4 | 300 | 0.33 | 0.8 | 4.9 µM and 4.92 µM | O=c1c(O)c(-c2ccc(O)c(OS(=O)(=O)O)c2)oc2cc(O)cc(O)c12 [Q3′S, quercetin-3′-sulfate] |  | 
5 | 1600 | 4.05 | 25 | > 30 µM | O=C(O)C1OC(Oc2c(-c3ccc(O)c(O)c3)oc3cc(O)cc(O)c3c2=O)C(O)C(O)C1O (centres unmarked) [Q3G, quercetin-3-glucuronide] |  | 
